The values below come from patent US20120004405A1, “COMPOUNDS HAVING ACTIVITY IN CORRECTING MUTANT CFTR CELLULAR PROCESSING” (priority 2008, published 2012).

Molecules are shown by their SMILES. Entries after “also recorded” stand apart in the source; their conditions may differ.

For data set [1], the target named is T1, ΔF508-CFTR (Homo sapiens, UniProt P13569, DEL508-508).
T1 construct: Human epithelial cells containing wildtype (A) or ΔF508-CFTR (B); endogenous in cells; host or cells: CFBE14o- human epithelial cells (provided by Dr. D. C. Gruenert)
The data set is described as follows: Iodide efflux from ΔF508-CFTR epithelial cells. As to conditions: for iodide efflux from ΔF508-CFTR epithelial cells: iodide-loaded cells, compound added at time point 0, iodide sensitive electrode. The class given is cell-based. As to the method: Iodide efflux experiments were performed as described. Briefly, Cells (80-90% confluent) were incubated for 1 h in a loading buffer containing 136 mM NaI, 3 mM KNO3, 2 mM Ca(NO3)2, 11 mM glucose, and 20 mM Hepes, adjusted to pH 7.4 with NaOH. To remove extracellular iodide, cells were thoroughly washed with efflux buffer (136 mM NaNO3 replacing 136 mM NaI in the loading buffer) and then equilibrated in 2.5 ml efflux buffer for 1 min. The efflux buffer was changed at 1 min intervals over the duration of the experiment. Four minutes after anion substitution, cells were exposed to compound 1D. The amount of iodide in each 2.5 ml sample of efflux buffer was determined using an iodide-selective electrode (HNU Systems Ltd, Warrington, UK). Cells were loaded and experiments performed at room temperature.

The test system of data set [2] is mutant CFBE14o- cells (ΔF508-CFTR). The data set is described as follows: Transepithelial resistance of mutant CFBE14o- epithelial cells. The class given is cell-based, human. As to the method:
(§1) Human epithelial cells containing wildtype CFTR (16HBE14o-) and the mutant cell line CFBE14o- were kindly provided by Dr. D. C. Gruenert. They were grown in suspension culture in Dulbeccós medium supplemented with streptomycin/penicillin (100 units of each/ml) and 10% foetal calf serum.
A cell monolayer on a thin filter membrane (growth area, 4.2 cm2; pore diameter, 0.4 μm; thickness, 20 μm; Falcon, Heidelberg, Germany) served as a test barrier for the invasive capabilities of malignant cells. When confluent, these cells from a tight epithelial sheet with a high trans-epithelial electrical resistance (TEER), which was measured continuously using a STX-2 electrode (WPI, Sarasota, USA). Permeabilization of the epithelial cell layer (MDCK-C7 cells) due to the invasive activity of the melanoma cells can be determined by trans-epithelial electrical resistance (TEER) measurements, as previously reported [24;25].

The test system of data set [3] is wildtype HBE14o- cells (normal CFTR). The data set is described as follows: Transepithelial resistance of wildtype HBE14o- epithelial cells. It counts as cell-based, human.
The next data set concerns the target T2, hyaluronan exporter MRP5 (Homo sapiens, UniProt O15440).
T2 construct: tested on human fibroblasts cultures for their influence on hyaluronan exporter MRP5; endogenous in cells; host or cells: human fibroblast cultures
Nature of the data set: Determination of hyaluronan export from human fibroblasts (ELISA of culture medium). It counts as cell-based. The settings on record: incubated two days with increasing concentrations; hyaluronan in culture supernatant. As to the method: (§2) The cells were incubated for 24 hours at 37° C., the media were replaced with fresh media and after additional 24 hours aliquots (5 and 20 μl) of the culture medium were used for measurement of the hyaluronan concentration in the cell culture medium by an ELISA. The wells of a 96 well Covalink-NH-microtiter plate (NUNC) were coated with 100 μl of a mixture of […] of hyaluronan (Healon®), 9.2 μg/ml of N-Hydroxysuccin-imide-3-sulfonic acid and 615 μl/ml of 1-ethyl-3-(3-dimethylaminopropyl)-carbodiimide for 2 hours at room temperature and overnight at 4° C. The wells were washed three times with 2 M NaCl, 41 mM MgSO4, 0.05% Tween-20 in 50 mM phosphate buffered saline pH 7.2 (buffer A) and once with 2 M NaCl, 41 mM MgSO4, in phosphate buffered saline pH 7.2. Additional binding sites were blocked by incubation with 300 μl of 0.5% bovine serum albumin in phosphate buffered saline for 30 min at 37° C. Calibration of the assay was performed with standard concentrations of hyaluronan ranging from 15 ng/ml to 6000 ng/ml in equal volumes of culture medium as used for measurement of the cellular supernatants. […] The adsorption was read at 490 nm. The concentrations in the samples were calculated from a logarithmic regression curve of the hyaluronan standard solutions.
(In general: An ELISA detects its analyte on a solid surface through an enzyme-linked reagent.)

In a further data set the test system is nasal epithelium. Nature of the data set: Transepithelial nasal resistance measured on the inventor. The class given is in vivo. The settings on record: human. As to the method:
The effect of compound 1D was evaluated on the inventor of the present application by measurement of the transepithelial nasal resistance. This is a standard protocol for testing pharmaceutically active compounds on humans, (http://central.igc.gulbenkian.pt/cftr/vr/e/schuler_basic_protocol_for_measurement_of_transepithelial_nasal_potential_difference.pdf) (see also the results of FIG. 9).
The nasal epithelium was equilibrated with isotonic (0.9%) NaCl, 2 mM CaCl2. […] To determine the maximal possible potential differences in this experiment, the solution was changed to isotonic NaCl, 2 mM CaCl2 containing 10 μM amiloride that is known to close Na+ channels. […] After equilibration, the solution was changed to low salt with 0.09% NaCl, 0.2 mM CaCl2 containing 10 μM isoprenalol.

Data set [4] is described as follows: Alamarblue cytotoxicity assay. The class given is cell-based. The settings on record: up to concentrations of 400 μM; data not shown. As to the method: In a preferred embodiment, the present invention relates to compounds 1B, 1C, 1D 1F and 1G. […] Compound 1D is particularly preferred.
The cytotoxicity of the drugs was measured as described.

The target of the next data set is T3, wildtype CFTR (Homo sapiens, UniProt P13569).
T3 construct: Human epithelial cells containing wildtype CFTR (16HBE14o-); endogenous in cells; host or cells: 16HBE14o- human epithelial cells (provided by Dr. D. C. Gruenert)
The data set is described as follows: Western blotting of cell surface expressed CFTR, wildtype epithelial cells. The class given is cell-based. The settings on record: increasing concentration of compound. As to the method: as §1
(§3) The cell pellets were solubilized by vortexing in buffer (Tris-HCl 0.06 M; 2% SDS, 10% glycerol, 0.1M dithiothreitol, 0.1% bromophenol-blue and the protease inhibitor cocktail, pH 6.8). Following centrifugation (2 min, 8.000 g) samples of the supernatant were separated on 10% poly-acrylamide slabgels. Proteins were subsequently electroblotted onto nitrocellulose paper in 0.025 M Tris, 0.192 M glycine, 20% methanol. The blots were incubated at 4° C. with 0.02M Tris-HCl, 0.15M NaCl, 0.1% Tween20, pH7.5 followed by overnight incubation at 4° C. with a 1:500 dilution of primary anti-CFTR antibody in 0.02M Tris-HCl, 0.15M NaCl, 0.1% Tween20, pH7.5. Blots were washed three times, incubated with peroxidase-conjugated anti-rabbit IgG for 2 h, and washed four times. Peroxidase activity was detected with […] reagent (ECL kit; Amersham, Braunschweig, Germany) on X-ray film.
On the technique in general: In western blotting, separated proteins are transferred to a membrane and probed.

In another data set the target is T4, CFTR (Mus musculus, UniProt P26361).
T4 construct: endogenous in cells
Nature of the data set: Hyaluronan export through CFTR in a mouse fibroblasts cell line. It counts as cell-based. As to the method:
as §2

Data set [5] has as its target T1, ΔF508-CFTR. Nature of the data set: Western blotting of cell surface expressed CFTR, ΔF508-CFTR epithelial cells. It counts as cell-based. As to the method: as §1, §3

T1 sequence (P13569 with tags, fused parts or gaps DEL508-508): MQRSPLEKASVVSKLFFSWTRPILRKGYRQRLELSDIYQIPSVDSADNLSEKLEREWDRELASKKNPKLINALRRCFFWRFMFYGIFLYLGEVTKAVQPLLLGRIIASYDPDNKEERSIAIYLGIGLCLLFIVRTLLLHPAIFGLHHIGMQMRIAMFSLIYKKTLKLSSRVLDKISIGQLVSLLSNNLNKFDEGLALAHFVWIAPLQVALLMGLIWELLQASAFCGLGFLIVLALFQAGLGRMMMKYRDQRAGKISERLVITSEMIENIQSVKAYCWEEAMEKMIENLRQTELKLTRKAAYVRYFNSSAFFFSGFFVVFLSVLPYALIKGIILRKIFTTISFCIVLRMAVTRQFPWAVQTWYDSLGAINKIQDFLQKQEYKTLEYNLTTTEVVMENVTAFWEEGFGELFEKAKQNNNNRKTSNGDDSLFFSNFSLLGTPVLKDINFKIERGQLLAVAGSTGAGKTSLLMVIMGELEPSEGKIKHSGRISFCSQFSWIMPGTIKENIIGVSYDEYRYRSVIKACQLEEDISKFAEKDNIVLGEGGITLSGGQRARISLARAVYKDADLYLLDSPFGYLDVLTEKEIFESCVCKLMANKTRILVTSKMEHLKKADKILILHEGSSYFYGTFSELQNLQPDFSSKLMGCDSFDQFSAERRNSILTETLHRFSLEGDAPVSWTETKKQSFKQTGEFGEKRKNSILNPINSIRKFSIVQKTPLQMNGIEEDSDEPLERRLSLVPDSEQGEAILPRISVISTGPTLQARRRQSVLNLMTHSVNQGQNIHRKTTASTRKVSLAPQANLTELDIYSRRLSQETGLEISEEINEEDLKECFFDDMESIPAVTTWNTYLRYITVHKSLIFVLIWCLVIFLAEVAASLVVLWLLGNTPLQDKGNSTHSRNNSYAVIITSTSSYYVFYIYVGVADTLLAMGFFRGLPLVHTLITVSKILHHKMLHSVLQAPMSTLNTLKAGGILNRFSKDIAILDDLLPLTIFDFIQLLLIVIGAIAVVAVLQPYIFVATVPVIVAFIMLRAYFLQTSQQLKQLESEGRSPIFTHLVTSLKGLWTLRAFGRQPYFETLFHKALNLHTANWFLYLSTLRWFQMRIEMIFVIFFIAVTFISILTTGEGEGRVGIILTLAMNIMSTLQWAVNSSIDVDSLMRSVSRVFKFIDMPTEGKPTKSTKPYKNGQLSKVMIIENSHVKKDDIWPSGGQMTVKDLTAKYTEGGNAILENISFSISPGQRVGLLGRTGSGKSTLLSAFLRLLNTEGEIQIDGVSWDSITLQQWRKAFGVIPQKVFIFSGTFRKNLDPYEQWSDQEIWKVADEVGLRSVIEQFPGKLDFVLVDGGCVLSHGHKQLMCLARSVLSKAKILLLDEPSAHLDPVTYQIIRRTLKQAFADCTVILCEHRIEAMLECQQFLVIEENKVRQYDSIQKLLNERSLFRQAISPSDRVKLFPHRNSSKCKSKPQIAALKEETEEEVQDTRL
T2 sequence (O15440 whole entry): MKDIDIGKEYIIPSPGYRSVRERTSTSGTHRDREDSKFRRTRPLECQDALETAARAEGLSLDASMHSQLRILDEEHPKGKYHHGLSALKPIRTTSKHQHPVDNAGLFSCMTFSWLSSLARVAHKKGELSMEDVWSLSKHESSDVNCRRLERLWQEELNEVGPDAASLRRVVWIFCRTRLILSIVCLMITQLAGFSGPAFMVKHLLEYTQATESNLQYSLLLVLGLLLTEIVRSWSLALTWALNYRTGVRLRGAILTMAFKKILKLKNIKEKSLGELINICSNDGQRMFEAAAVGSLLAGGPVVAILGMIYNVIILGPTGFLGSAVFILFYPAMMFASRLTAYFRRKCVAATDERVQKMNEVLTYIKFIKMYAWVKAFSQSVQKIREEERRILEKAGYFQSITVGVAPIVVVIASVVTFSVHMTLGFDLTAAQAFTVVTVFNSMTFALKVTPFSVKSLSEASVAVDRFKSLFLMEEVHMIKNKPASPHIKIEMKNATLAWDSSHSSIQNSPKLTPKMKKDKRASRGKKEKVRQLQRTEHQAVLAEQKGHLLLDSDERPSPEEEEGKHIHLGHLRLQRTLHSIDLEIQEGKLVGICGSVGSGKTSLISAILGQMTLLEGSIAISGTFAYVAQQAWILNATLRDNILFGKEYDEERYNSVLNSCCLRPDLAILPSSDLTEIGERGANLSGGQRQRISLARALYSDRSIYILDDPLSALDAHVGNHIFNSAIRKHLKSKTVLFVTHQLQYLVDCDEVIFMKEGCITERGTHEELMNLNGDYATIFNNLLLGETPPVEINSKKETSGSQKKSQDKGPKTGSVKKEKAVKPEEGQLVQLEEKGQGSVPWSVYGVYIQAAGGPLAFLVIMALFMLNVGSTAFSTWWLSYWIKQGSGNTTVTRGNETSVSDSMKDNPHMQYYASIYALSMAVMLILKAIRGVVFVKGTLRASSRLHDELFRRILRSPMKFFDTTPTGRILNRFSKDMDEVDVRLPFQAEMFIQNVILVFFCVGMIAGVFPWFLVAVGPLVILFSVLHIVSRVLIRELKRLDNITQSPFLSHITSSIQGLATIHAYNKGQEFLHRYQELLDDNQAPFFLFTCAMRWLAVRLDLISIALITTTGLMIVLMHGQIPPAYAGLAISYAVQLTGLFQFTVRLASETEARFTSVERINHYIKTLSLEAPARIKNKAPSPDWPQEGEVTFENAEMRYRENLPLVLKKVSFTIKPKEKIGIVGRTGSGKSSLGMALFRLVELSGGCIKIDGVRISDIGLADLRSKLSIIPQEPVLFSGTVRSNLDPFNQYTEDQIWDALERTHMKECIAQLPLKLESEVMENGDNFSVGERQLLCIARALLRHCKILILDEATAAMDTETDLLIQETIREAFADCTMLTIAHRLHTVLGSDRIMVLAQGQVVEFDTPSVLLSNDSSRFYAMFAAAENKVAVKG
T4 sequence (P26361 whole entry): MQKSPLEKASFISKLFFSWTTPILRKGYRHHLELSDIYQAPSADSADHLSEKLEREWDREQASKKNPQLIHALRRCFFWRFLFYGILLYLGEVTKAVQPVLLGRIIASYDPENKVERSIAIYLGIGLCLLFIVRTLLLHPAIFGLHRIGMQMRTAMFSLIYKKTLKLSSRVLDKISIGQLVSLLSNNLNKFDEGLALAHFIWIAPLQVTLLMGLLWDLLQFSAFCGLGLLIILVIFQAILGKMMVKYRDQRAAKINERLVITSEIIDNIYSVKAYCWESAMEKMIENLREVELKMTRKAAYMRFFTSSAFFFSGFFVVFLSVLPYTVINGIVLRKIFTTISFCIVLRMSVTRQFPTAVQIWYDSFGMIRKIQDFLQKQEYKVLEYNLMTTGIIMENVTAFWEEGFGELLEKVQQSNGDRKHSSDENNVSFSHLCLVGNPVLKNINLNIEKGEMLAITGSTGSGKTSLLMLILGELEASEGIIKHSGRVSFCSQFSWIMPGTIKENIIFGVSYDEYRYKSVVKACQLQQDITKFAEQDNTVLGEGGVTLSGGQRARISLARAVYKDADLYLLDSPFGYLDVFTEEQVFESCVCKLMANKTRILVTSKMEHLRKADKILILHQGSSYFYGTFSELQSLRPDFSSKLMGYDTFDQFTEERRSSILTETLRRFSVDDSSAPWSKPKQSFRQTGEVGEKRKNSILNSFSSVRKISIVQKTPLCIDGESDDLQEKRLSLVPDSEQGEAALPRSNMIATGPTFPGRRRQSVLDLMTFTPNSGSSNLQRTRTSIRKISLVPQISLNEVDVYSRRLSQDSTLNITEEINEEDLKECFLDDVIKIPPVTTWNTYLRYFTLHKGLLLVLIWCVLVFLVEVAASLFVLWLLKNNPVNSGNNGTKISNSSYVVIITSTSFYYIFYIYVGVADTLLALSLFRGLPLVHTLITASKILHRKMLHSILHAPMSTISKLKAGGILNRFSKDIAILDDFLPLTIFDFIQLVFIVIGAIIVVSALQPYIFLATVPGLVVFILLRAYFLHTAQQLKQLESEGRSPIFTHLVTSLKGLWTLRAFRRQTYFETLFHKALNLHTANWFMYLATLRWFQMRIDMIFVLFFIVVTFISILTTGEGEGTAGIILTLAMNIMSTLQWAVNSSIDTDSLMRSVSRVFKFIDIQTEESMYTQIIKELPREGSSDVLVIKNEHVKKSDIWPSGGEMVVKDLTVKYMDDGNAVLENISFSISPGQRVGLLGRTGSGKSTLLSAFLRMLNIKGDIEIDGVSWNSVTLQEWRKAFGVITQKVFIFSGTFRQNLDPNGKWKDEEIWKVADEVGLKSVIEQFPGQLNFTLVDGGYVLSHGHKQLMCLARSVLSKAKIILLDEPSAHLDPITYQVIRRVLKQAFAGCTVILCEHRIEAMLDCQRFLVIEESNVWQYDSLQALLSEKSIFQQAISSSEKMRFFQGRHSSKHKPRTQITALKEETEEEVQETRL

`O=C(O)c1ccc(/C=C2\SC(=S)N(c3cccc(C(F)(F)F)c3)C2=O)cc1` [CFTR172, reference compound]: at ΔF508-CFTR [1] (simultaneous addition with D4), the “effect on D4 activation of iodide efflux through F508-CFTR” value was “reduces the activation”.

In the case of `CC(=O)Nc1c(O)cccc1Oc1ccccc1C(=O)O` [Compound 1B, 2-(2-acetamido-3-hydroxyphenoxy)benzoic acid], at ΔF508-CFTR [1], the “iodide efflux from ΔF508-CFTR epithelial cells” value is “stimulates iodide efflux”.

Consider `CC(=O)Nc1c(O)cc(O)cc1Oc1ccc(N)cc1C(=O)O` [Compound 1D, 2-(2-acetamido-3,5-dihydroxyphenoxy)-5-aminobenzoic acid], for which the “transepithelial resistance of ΔF508-CFTR epithelial cells over a longer time period” value in data set [2] (100 μM) is “increase in transepithelial resistance; also recorded: long lasting rescue of ΔF508-CFTR”. In data set [2] (FIG. 10, compared to 8-Bromo-cAMP and control), the “transepithelial resistance of epithelial cells containing F508-CFTR” value is given as “resistance increases”. Besides, the “TER of F508-CFTR cells over a period of 90 hours” value in data set [2] (FIG. 12, versus control without any treatment) is reported as “drops below the control”. Besides, the “transepithelial resistance of epithelial cells containing normal CFTR, immediate effect” value in data set [3] (FIG. 10) is on record as “drops immediately”. In addition, the “TER of normal cells over a period of 90 hours” value in data set [3] (FIG. 12) was “reduce the TER”. The “activation of hyaluronan export from human fibroblasts” value on hyaluronan exporter MRP5 is reported as “most active; also recorded: most activating”. Besides, in the data set on nasal epithelium (100 μM in isotonic NaCl, 2 mM CaCl2, after a transient increase), the transepithelial nasal resistance entry was “decreased below the equilibrating solution”. Moreover, the “reversibility of the effect on transepithelial nasal resistance” value in the data set on nasal epithelium (wash out) was “reversible”. Also, in [4], the “toxicity (Alamarblue assay)” value is on record as “not toxic”. The “expression of wildtype CFTR on the cell surface (Western blotting)” value on wildtype CFTR is listed as “slightly decreased”. The “iodide efflux from ΔF508-CFTR epithelial cells” value was “stimulated a sudden burst of iodide efflux” on ΔF508-CFTR [1] and “channels immediately open” at ΔF508-CFTR [1] (listed as D4). On CFTR, the “hyaluronan export through CFTR” value is listed as “activated”. In addition, the “concentration at which increase of membrane expression on ΔF508-CFTR epithelial cells was observed” value on ΔF508-CFTR [5] (Western blotting) turned out to be 100 µM. Further, the “expression of ΔF508-CFTR on the cell surface / plasma membrane (Western blotting)” value on ΔF508-CFTR [5] (human epithelial cells, increasing concentration of compound) was “recruited to the plasma membrane; also recorded: enhanced; also recorded: restored plasma membrane expression”.

In the case of `N=C(N)NC(=O)c1nc(Cl)c(N)nc1N` [amiloride, reference compound], the transepithelial nasal resistance result in the data set with nasal epithelium (10 μM in isotonic NaCl, 2 mM CaCl2) is “increased to a maximal valued”.

Turning to `CC(C)NCC(O)c1ccc(O)c(O)c1` (stereo not shown) [isoprenalol, reference compound], in the data set on nasal epithelium (10 μM in low salt 0.09% NaCl, 0.2 mM CaCl2), the transepithelial nasal resistance entry is recorded as “maximal drop of the transepithelial resistance”.
